Reference: patent US7494996B2 (priority 2000, dated 2009)

Tests used:
Sphaerotheca fuliginea = assay: Cucumber Powdery Mildew (CPM) protectant test in the greenhouse; assay type: in vivo; conditions: 100 is total disease control, 0 is no disease control; for Cucumber Powdery Mildew (CPM) protectant fungicide data, percent control: 300 g/ha
Procedure: Plants used in the fungicide testing program were grown in 2-¼-inch (5.7-cm). square pots containing RediEarth propagation substrate. The plants were raised under greenhouse conditions. The rice plants were 12-days-old and cucumbers were 13-days-old at the time of spraying with chemical treatments.
The sample of the experimental chemical was weighed and dissolved in an acetone-methanol-water solution (A/M/W at 1:1:2 ratio by volume).
After sprayer calibration, the test solutions were poured into the fungicide sprayer. The fungicide sprayer contains three spray nozzles, located approximately 10 cm above and to the sides of the plants. The spray produced by the nozzles results in uniform coverage of both the upper and lower parts of the plant leaves. After spraying, the treated plants were placed in a drying chamber for 4 hours, prior to sorting.
Cucumber Powdery Mildew (CPM), caused by the fungus Sphaerotheca fuliginea, was maintained on large cucumber plants. For inoculum preparation, five to eight leaves depending on size, completely covered with powdery mildew spores, were collected. The leaves were placed in a glass jar and covered with 500 ml of water, containing 5 drops of Tween-80. The material was filtered through two layers of cheesecloth to remove leaf fragments. The spore count was adjusted to 2×10^5 spores per ml.
Cucumber plants, cv. “Bush Champion,” were used for this test. The plants were thinned to one per pot after the cotyledons were fully developed. Two days before the test, the small leaves and meristem region were removed, leaving only the cotyledons and one large true leaf.
The protectant tests required that the cucumber plants be inoculated 1 day after spraying with the chemical treatment. The plants were inoculated with a hand-held spray bottle with the suspension of fungal spores. The leaves were lightly misted on the upper surface from two different spray directions. Disease development occurred in the greenhouse.
After seven days, the plants were evaluated for percent of disease control. The results are reported as percent control; 100 is total disease control, 0 is no disease control.

Pyricularia oryzae = assay: whole plant or invertebrate; assay type: in vivo; conditions: 100 is total disease control, 0 is no disease control; for Rice Blast (RB) protectant fungicide data, percent control: 300 g/ha, greenhouse

| Structure (SMILES) | Cucumber Powdery Mildew (CPM) protectant fungicide data, percent control (Sphaerotheca fuliginea) [percent control] | Rice Blast (RB) protectant fungicide data, percent control (Pyricularia oryzae) [percent control] | pest or weed control at 300 g/ha (Sphaerotheca fuliginea; Podosphaera fuliginea, topical, 168 h, read-out: Cucumber Powdery Mildew (CPM) protectant fungicide data, percent control) [%] | pest or weed control at 300 g/ha (Pyricularia oryzae; Pyricularia oryzae, topical, 144 h, read-out: Rice Blast (RB) protectant fungicide data, percent control, protectant, 300 g/ha, greenhouse) [%] |
| --- | --- | --- | --- | --- |
| CCCCCN1N=C(c2ccc(Cl)cc2)NCC1=O [Compound 54] | 85 | 99 |  |  |
| CCCCCCN1N=C(c2ccc(Cl)cc2)NCC1=O [Compound 55] | 50 | 90 |  |  |
| CCCCCCCCN1N=C(c2ccc(Cl)cc2)NCC1=O [Compound 56] | 80 | 80 |  |  |
| CCCCCCCCCCN1N=C(c2ccc(Cl)cc2)NCC1=O [Compound 57] | 0 | 50 |  |  |
| Cc1cccc(N2N=C(c3ccc(Cl)cc3)NCC2=O)c1 [Compound 58] | 50 | 85 |  |  |
| O=C1CNC(c2ccc(Cl)cc2)=NN1c1ccccn1 [Compound 59] | 0 | 50 |  |  |
| N#CCN1N=C(c2ccc(Cl)cc2)NCC1=O [Compound 60] | 0 | 75 |  |  |
| C[Si](C)(C)CN1N=C(c2ccc(Cl)cc2)NCC1=O [Compound 61] | 50 | 85 |  |  |
| O=C1CNC(c2ccc(Cl)cc2)=NN1Cc1ccc(Cl)s1 [Compound 62] | 0 | 85 |  |  |
| O=C1CNC(c2cc(Cl)cc(Cl)c2)=NN1 [Compound 64] | 0 | 50 |  |  |
| C=C(Cl)CN1N=C(c2cc(Cl)cc(Cl)c2)NCC1=O [Compound 65] | 50 | 95 |  |  |
| CCCCN1N=C(c2sc(C)nc2C(F)(F)F)NCC1=O [Compound 68] | 50 | 0 |  |  |
| COC(=O)N1CC(=O)N(CC(F)(F)F)N=C1c1cc(Cl)cc(Cl)c1 [Compound 71] | 50 | 75 |  |  |
| CC(=O)N1CC(=O)N(CC(F)(F)F)N=C1c1cc(Cl)cc(Cl)c1 [Compound 72] | 50 | 75 |  |  |
| O=C1CNC(c2ccc(Cl)cc2Cl)=NN1CC(F)(F)F [Compound 73] | 75 | 85 |  |  |
| CCCCN1N=C(c2cc(Cl)ccc2Cl)NCC1=O [Compound 74] | 0 | 99 |  |  |
| CCCCN1N=C(C)NC(c2ccc(C)cc2)C1=O (centres unmarked) [Compound 75] | 85 | 0 |  |  |
| CCCCN1N=C(C)NC(c2ccccc2C)C1=O (centres unmarked) [Compound 76] | 25 | 0 |  |  |
| CCCCN1N=C(C)NC(c2cccc(C)c2)C1=O (centres unmarked) [Compound 77] | 50 | 0 |  |  |
| CCCCN1N=C(C)NC(c2cccc(N)c2)C1=O (centres unmarked) [Compound 78] | 25 | 0 |  |  |
| CCCCN1N=C(C)NC(c2ccc(OC)cc2)C1=O (centres unmarked) [Compound 79] | 50 | 75 |  |  |
| CCCCN1N=C(C)NC(c2cccc(OC)c2)C1=O (centres unmarked) [Compound 80] | 50 | 0 |  |  |

| Structure (SMILES) | Cucumber Powdery Mildew (CPM) protectant fungicide data, percent control (Sphaerotheca fuliginea) [percent control] | Rice Blast (RB) protectant fungicide data, percent control (Pyricularia oryzae) [percent control] | pest or weed control at 300 g/ha (Sphaerotheca fuliginea; Podosphaera fuliginea, topical, 168 h, read-out: Cucumber Powdery Mildew (CPM) protectant fungicide data, percent control) [%] | pest or weed control at 300 g/ha (Pyricularia oryzae; Pyricularia oryzae, topical, 144 h, read-out: Rice Blast (RB) protectant fungicide data, percent control, protectant, 300 g/ha, greenhouse) [%] |
| --- | --- | --- | --- | --- |
| CCCCN1N=C(C)NC(c2c(C)cc(C)cc2C)C1=O (centres unmarked) [Compound 82] | 25 | 0 |  |  |
| CCCCN1N=C(c2ccccc2O)NCC1=O [Compound 83, 1-n-Butyl-3-(2-hydroxyphenyl)-4,5-dihydro-1,2,4-triazin-6-one] |  |  | 0 | 80 |
| O=C1CNC(c2cccc(F)c2)=NN1CC(F)(F)F [Compound 84] | 85 | 80 |  |  |
| CCCCN1N=C(c2ccc(Cl)c(Cl)c2)N(C(=O)C(=O)OC)CC1=O [Compound 85] | 50 | 100 |  |  |
| O=C1CNC(c2cccc(C(F)(F)F)c2)=NN1CC1CC1 [Compound 86] | 80 | 99 |  |  |
| C#CCN1CC(=O)N(CC#C)N=C1c1cccc(C(F)(F)F)c1 [Compound 87] | 0 | 90 |  |  |
| C#CCN1N=C(c2cccc(C(F)(F)F)c2)NCC1=O [Compound 88] | 50 | 100 |  |  |
| C#CCN1CC(=O)N(CC(F)(F)F)N=C1c1cccc(C(F)(F)F)c1 [Compound 89] | 0 | 75 |  |  |
| CCCCN1N=C(C)NC(c2ccccc2)C1=O (centres unmarked) [Compound 92] | 50 | 0 |  |  |
| CCCCN1N=C(C)NC(c2ccc(F)cc2)C1=O (centres unmarked) [Compound 93] | 75 | 0 |  |  |
| CCCCN1N=C(C)NC(c2ccc(F)c(C)c2)C1=O (centres unmarked) [Compound 94] | 75 | 0 |  |  |
| CCCCN1N=C(C)NC(c2ccc(C(C)(C)C)cc2)C1=O (centres unmarked) [Compound 95] | 75 | 25 |  |  |
| O=C1CNC(c2ccccc2F)=NN1CC(F)(F)F [Compound 96] | 75 | 50 |  |  |
| O=C1CNC(c2ccccc2Cl)=NN1CC(F)(F)F [Compound 97] | 85 | 0 |  |  |
| O=C1CNC(c2ccc(F)c(F)c2)=NN1CC(F)(F)F [Compound 98] | 75 | 85 |  |  |
| O=C1CNC(c2ccc(Cl)c(Cl)c2)=NN1CC(F)(F)F [Compound 99] | 80 | 100 |  |  |
| CCOC(=O)CN1N=C(c2ccc(Cl)c(Cl)c2)NCC1=O [Compound 102] | 50 | 85 |  |  |
| CCCCN1N=C(c2cc(Cl)cc(Cl)c2)NCC1=O [Compound 104] | 80 | 99 |  |  |
| Cc1ccccc1C1=NN(CC(F)(F)F)C(=O)C(O)N1 (centres unmarked) [Compound 105] | 75 | 85 |  |  |
| CCCCN1N=C(c2ccc(F)c(Cl)c2)NCC1=O [Compound 106] | 95 | 100 |  |  |
| CCCN1N=C(c2cc(Cl)cc(Cl)c2)NCC1=O [Compound 107] | 95 | 99 |  |  |
